Laboratory results published in patent US6495570B2, “Combination drug therapy for glycolipid storage diseases” (G. D. Searle & Co., priority 1999, dated 2002).
“And” between values parts separate entries of the source, which are not always exact repeats. Identical values can stand only once.

How the values were obtained:
[1] = test system: glycolipid biosynthesis in human myeloid (HL-60) cells; assay: Inhibition of glycolipid biosynthesis in HL-60 cells (radiolabelled palmitic acid, TLC, scanning densitometry); format: cell-based; conditions: for IC50: Homo sapiens, range quoted for variability of the radiolabelled products, read-out: IC50, inhibition of glycolipids (glucosylceramide and lactosylceramide bands)
Procedure: (§1) Cells were cultured for four days in the presence of radiolabelled palmitic acid and the following concentrations of compound:
(§2) After extraction the radioactively labelled glycolipids were separated by TLC and visualized by radioautography. NB-DNJ is N-butyl-DNJ. NN-DNJ is N-nonyl-DNJ.
(§3) Chinese Hamster Ovary (CHO) cells and human myeloid (HL-60) cells grown in the presence of varying concentrations of inhibitor in addition to a precursor (radiolabelled palmitic acid) of glycolipid biosynthesis were treated with solvents to extract the glycolipids by the procedure described by Platt et al., J. Biol. Chem. 269, 8362-8365 (1994).
(§4) The radiolabelled lipids were separated by TLC (FIG. 1) and bands corresponding to glucosylceramide and lactosylceramide were quantitated by scanning densitometry to estimate the reduction in glycolipid biosynthesis.
(§5) Table 1. […] Radiolabelled glucosylceramide and lactosylceramide bands from FIG. 1 were quantitated by scanning densitometry and the percentage of control (no treatment, track a, FIG. 1) expressed in comparison to compound dose. From the linear curve, an IC50 value was obtained. A range of values is quoted to represent variability of the radiolabelled products.

[2] = mice, oral 4800 mg/Kg/day; cited from earlier work
[3] = Organ distribution of radiolabelled compound after oral gavage in the normal mouse; format: in vivo
Procedure: Mouse body fluids and organs were collected for different times (30, 60, 90 minutes) after gavage with radiolabelled compound. Radioactivity in each sample was determined and expressed as a percentage of radioactivity recovered. Solid bars, NN-DNJ, hatched bars, NB-DNJ.
Further evidence that longer alkyl chains are taken up-much better than the shorter alkyl chains has been obtained by in vivo studies with mouse.
Table 2. Recovery of radiolabelled compounds after administration in the normal mouse. Mouse body fluids and organs were collected at different times after gavage with radiolabelled compound. Radioactivity in each sample was determined and expressed as a percentage of radioactivity recovered (data from FIG. 5).

[4] = cited from earlier work
[5] = test system: glycolipid biosynthesis in Chinese hamster ovary (CHO) cells; assay: Inhibition of glycolipid biosynthesis in CHO cells (radiolabelled palmitic acid, TLC, scanning densitometry); format: cell-based; conditions: for IC50: Cricetulus griseus, range quoted for variability of the radiolabelled products, read-out: IC50, inhibition of glycolipids (glucosylceramide and lactosylceramide bands)
Procedure: as §1, §2, §3, §4, §5

[6] = test system: human immunodeficiency virus (HIV); conditions: cited from earlier work
glycolipid biosynthesis = conditions: cited from earlier work
Hepatitis B virus (HBV) = conditions: based on inhibition of alpha-glucosidases in the ER; cited from earlier work
[7] = test system: CHO, MDBK and HepG2 cells; assay: Uptake of radiolabelled compound into cultured cells (cell-associated radioactivity); format: in vitro ADME; conditions: incubated up to 24 hours
Procedure: FIG. 5 is a bar graph of estimated radioactivity. […] Cells were extensively washed and acid precipitated. After solution in NaOH, cell associated radioactivity was determined as a percentage of radiolabelled compound added.
The activity is explained by the differential uptake into cells.

Structure (SMILES)	IC50 ([1]; HL-60 cells) [nM]	% recovered, Brain ([3]; 30 min after gavage, mouse) [%]	% recovered, Liver ([3]; 30 min after gavage, mouse) [%]	% recovered, Brain ([3]; 60 min after gavage, mouse) [%]	% recovered, Liver ([3]; 60 min after gavage, mouse) [%]	% recovered, Brain ([3]; 90 min after gavage, mouse) [%]	% recovered, Liver ([3]; 90 min after gavage, mouse) [%]	IC50 [5] [nM]	dose required for activity against glycolipid biosynthesis (glycolipid biosynthesis) [mg/mL]	other results
CCCCN1C[C@H](O)[C@@H](O)[C@H](O)[C@H]1CO [N-butyl-DNJ, N-butyl-1,5-dideoxy-1,5-imino-D-glucitol]	1800 to 7300	0.2	8.5	0.1	2.8	0.03	0.9	25000 to 50000	0.01 to 0.1	stable serum concentration [2]: 50 µM; time of treatment to steady-state plasma concentration ([4]; clinical trial): 4-6 weeks; peak plasma concentration ([4]; oral, 100 mg three times daily, listed as ND-DNJ): 6.8 μM and 1.5 μg/ml; effectiveness as an inhibitor of HIV versus the N-ethyl analog [6]: three log orders more effective; effectiveness as an inhibitor of HIV versus the N-methyl analog [6]: more than two log orders more effective
CCCCCCCCCCN1C[C@H](O)[C@@H](O)[C@H](O)[C@H]1CO [N-decyl-DNJ]	–	–	–	–	–	–	–	–	–	inhibition at times lower concentrations than N-butyl-DNJ ([1]; HL-60 cell-based assay): 50 times
CCCCCCN1C[C@H](O)[C@@H](O)[C@H](O)[C@H]1CO [N-hexyl derivative of DNJ]	–	–	–	–	–	–	–	–	0.2	–
CN1C[C@H](O)[C@@H](O)[C@H](O)[C@H]1CO [N-methyl analog]	–	–	–	–	–	–	–	–	–	activity against glycolipid biosynthesis (glycolipid biosynthesis): inactive
CCCCCCCCCN1C[C@H](O)[C@@H](O)[C@H](O)[C@H]1CO [N-nonyl-DNJ, N-nonyl-1,5-dideoxy-1,5-imino-D-glucitol]	20 to 400	0.4	27.1	0.3	12.6	0.4	13.5	2000 to 2700	–	inhibition of glycolipid biosynthesis, better than N-butyl-DNJ at equivalent concentrations ([1]; HL-60 cells): about four hundred times better; inhibition of the Hepatitis B virus (HBV) (Hepatitis B virus (HBV)): effective; radioactivity recovered in the liver and brain, higher than N-butyl-DNJ ([3]; after 90 min, oral gavage, mouse): 10 fold; uptake into the brain versus N-butyl-DNJ ([3]; tests of organ distribution): five times better; cell-associated radioactivity, increase versus N-butyl-DNJ [7]: 3.5-5.0 fold; inhibition of glycolipid biosynthesis, better than N-butyl-DNJ at equivalent concentrations [5]: about ten- to about twenty-fold better
